For experiment [1], the target named is T1, GNAT family acetyltransferase from Elizabethkingia anophelis (BAY10_3400) (Elizabethkingia anophelis, UniProt Z9UBX7MZA9).
T1 construct: full length, non-cleavable N-terminal His6-tag (vector BG1861), expressed in E. coli Rosetta BL21(DE3)R3; all residues modelled except N-terminal Met; monomer and dimer in SEC, crystal from dimer peak
Briefly: X-ray crystallography, […] A. The experiment is classed as binding. The conditions noted are these: co-crystallised with 5 mM acetyl-CoA, 100 mM Tris/HCl pH 5.5, 2 M ammonium sulfate, 285 K; active site.

The target in experiment [2] is GNAT family acetyltransferase from Elizabethkingia anophelis (Elizabethkingia anophelis). Description: SEC; preparative HiLoad 26/60 Superdex 75 in 25 mM HEPES, 500 mM NaCl, 5% glycerol, 2 mM DTT, 0.025% azide pH 7.0; calibrated with conalbumin, ovalbumin and ribonuclease A; molecular weights from the elution volume.

On to `CC(=O)SCCNC(=O)CCNC(=O)[C@H](O)C(C)(C)COP(=O)(O)OP(=O)(O)OC[C@H]1O[C@@H](n2cnc3c(N)ncnc32)[C@H](O)[C@@H]1OP(=O)(O)O` [acetyl-CoA], for which the “X-ray crystallography, 1.85 A” value in experiment [1] is on record as “Our structure contained a well-ordered acetyl-CoA molecule bound in the active site”.

Turning to “GNAT family acetyltransferase from Elizabethkingia anophelis (enzyme)”, the stoichiometry N in experiment [2] stood at 2.

These data come from PMC7809356, “Structural characterization of a GNAT family acetyltransferase from Elizabethkingia anophelis bound to acetyl-CoA reveals a new dimeric interface” (Scientific Reports, 2021).
